The values below come from patent US10294202B2, “Pyrrolidinones as herbicides” (FMC Corporation, priority 2013, dated 2019).

One assay concerns watergrass, late. The assay can be described thus: Test F flood (paddy) test. The conditions noted are these: 21 d, scale 0-100. It is filed as in vivo, Echinochloa oryzicola. From the text: Three plastic pots (ca. 16-cm diameter) per rate were partially filled with sterilized Tama silt loam soil comprising a 35:50:15 ratio of sand, silt and clay and 2.6% organic matter. Separate plantings for each of the three pots were as follows. Seeds from the U.S. of monochoria (Monochoria vaginalis), sedge, umbrella (small-flower umbrella sedge, Cyperus difformis), bulrush, […] bulrush, Scirpus juncoides), and […] (purple […] coccinea), were planted into one 16-cm pot for each rate. Seeds from the U.S. of flatsedge, rice (rice flatsedge, Cyperus iria), sprangletop, Brdd. (bearded sprangletop, Leptochloa fascicularis), one stand of 9 or 10 water seeded rice seedlings (Rice, W.S. Jap, Oryza sativa cv. 'Japonica-[…]' or Rice, W.S. Ind, 'Indica'), and two stands of 3 or 4 seedlings of rice, transplanted (transplanted rice, Oryza sativa cv. 'Japonica-[…]') were planted into one 16-cm pot for each rate. Seeds from the U.S. of barnyardgrass (Echinochloa crus-galli), […] (common […], Alisma plantago-aquatica), and watergrass, late (late watergrass, Echinochloa oryzicola) were planted into one 16-cm pot for each rate. Plantings were sequential so that crop and weed species were at the 2.0 to 2.5-leaf stage at time of treatment. Potted plants were grown in a greenhouse with day/night temperature settings of 30/27° C., and supplemental balanced lighting was provided to maintain a 16-h photoperiod. Test pots were maintained in the greenhouse until test completion. At time of treatment, test pots were flooded to 3 cm above the soil surface, treated by application of test compounds directly to the paddy water, and then maintained at that water depth for the duration of the test. Effects of treatments on rice and weeds were visually evaluated by comparison to untreated controls after 21 d. Plant response ratings, summarized in Table F, are based on a scale of 0 to 100 where 0 is no effect and 100 is complete control. A dash (-) response means no test result.

The test system of a further assay is galium. The assay can be described thus: Test D pre-/postemergence herbicide test. It is filed as in vivo, Galium aparine. As to conditions: Preemergence; for Plant response rating, Galium: scale 0 to 100 (0 no effect, 100 complete control). Put shortly:
(§1)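 Greenhouse pre- and postemergence screen with surfactant-containing non-phytotoxic solvent formulations. Silt loam soil served for preemergence application, and peat/vermiculite medium for postemergence application at 2–18 cm height. Visual 0–100 control ratings versus controls were recorded 7 to 21 days later.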

A further assay deals with radish, wild. The assay can be described thus: Test D pre-/postemergence herbicide test. It is filed as in vivo, Raphanus raphanistrum. As to conditions: Preemergence, scale 0 to 100 (0 no effect, 100 complete control). The method in brief: as §1
The next assay deals with canarygrass. The assay can be described thus: Test D pre-/postemergence herbicide test. The conditions noted are these: Preemergence; for Plant response rating, Canarygrass: scale 0 to 100 (0 no effect, 100 complete control). The format is in vivo, Phalaris minor. The method in brief: as §1
Another assay concerns mustard, wild. The assay can be described thus: Test D pre-/postemergence herbicide test. The conditions noted are these: Preemergence; for Plant response rating, Mustard, Wild: scale 0 to 100 (0 no effect, 100 complete control). It is filed as in vivo, Sinapis arvensis. From the text:
Seeds of plant species selected from bluegrass (annual bluegrass, Poa annua), blackgrass (Alopecurus myosuroides), canarygrass (littleseed canarygrass, Phalaris minor), chickweed (common chickweed, Stellaria media), galium (catchweed bedstraw, Galium aparine), bromegrass, downy (downy bromegrass, Bromus tectorum), field poppy (Papaver rhoeas), field violet (Viola arvensis), foxtail, green (green foxtail, Setaria viridis), deadnettle (henbit deadnettle, Lamium amplexicaule), ryegrass, Italian (Italian ryegrass, Lolium multiflorum), kochia (Kochia scoparia), lambsquarters (Chenopodium album), oilseed rape (Brassica napus), pigweed (Amaranthus retroflexus), chamomile (scentless chamomile, Matricaria inodora), Russian thistle (Salsola kali), speedwell (bird's-eye speedwell, Veronica persica), barley, spring (spring barley, Hordeum vulgare), wheat, spring (spring wheat, Triticum aestivum), buckwheat, wild (wild buckwheat, Polygonum convolvulus), mustard, wild (wild mustard, Sinapis arvensis), oat, wild (wild oat, Avena fatua), radish, wild (wild radish, Raphanus raphanistrum), […]), barley, winter (winter barley, Hordeum vulgare), and wheat, winter (winter wheat, Triticum aestivum) were planted into a silt loam soil and treated preemergence with test chemicals formulated in a non-phytotoxic solvent mixture which included a surfactant. At the same time, these species were planted in pots containing Redi-Earth® planting medium (Scotts Company, 14111 Scottslawn Road, Marysville, Ohio 43041) comprising spaghnum peat moss, vermiculite, wetting agent and starter nutrients and treated with postemergence applications of the test chemicals formulated in the same manner. Plants ranged in height from 2 to 18 cm (1- to 4-leaf stage). Treated plants and controls were maintained in a controlled growth environment for 7 to 21 days after which time all species were compared to controls and visually evaluated. Plant response ratings, summarized in Table D, are based on a scale of 0 to 100 where 0 is no effect and 100 is complete control. A dash (-) response means no test result.

The next assay relates to ryegrass, Italian. The assay can be described thus: Test E preemergence herbicide test. It is filed as in vivo, Lolium multiflorum. Further details: key: 0 = no effect, 100 = complete control. Put shortly:
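Seeds were sown in silt loam soil and treated preemergence with test chemicals in a non-phytotoxic solvent mixture containing a surfactant. Plants were kept in a greenhouse for 21 days, then visually rated against untreated controls on a 0–100 scale (0 = no effect, 100 = complete control).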

A further assay concerns goosegrass. The assay can be described thus: Test E preemergence herbicide test. Details: key: 0 = no effect, 100 = complete control. It is filed as in vivo, Eleusine indica. From the text: Seeds of plant species selected from corn (Zea mays), soybean (Glycine max), velvetleaf (Abutilon theophrasti), lambsquarters (Chenopodium album), wild poinsettia (Euphorbia heterophylla), pigweed, palmer (palmer pigweed, Amaranthus palmeri), waterhemp (common waterhemp, Amaranthus rudis), surinam grass (Brachiaria decumbens), crabgrass, large (large crabgrass, Digitaria sanguinalis), crabgrass, Brazil (Brazilian crabgrass, Digitaria horizontalis), panicum, fall (fall panicum, Panicum dichotomiflorum), foxtail, giant (giant foxtail, Setaria faberii), foxtail, green (green foxtail, Setaria viridis), goosegrass (Eleusine indica), johnsongrass (Sorghum halepense), ragweed (common ragweed, Ambrosia elatior), barnyardgrass (Echinochloa crus-galli), sandbur (southern sandbur, Cenchrus echinatus), arrowleaf […] rhombifolia), ryegrass, Italian (Italian ryegrass, Lolium multiflorum), dayflower, VA (Virginia dayflower, Commelina virginica), field bindweed (Convolvulus arvensis), morningglory (Ipomoea coccinea), nightshade (eastern black nightshade, Solanum ptycanthum), kochia (Kochia scoparia), nutsedge, yellow (yellow nutsedge, Cyperus esculentus), cocklebur (common cocklebur, Xanthium strumarium), smartweed (ladysthumb smartweed, Polygonum Persicaria) and beggarticks (hairy beggarticks, Bidens pilosa), were planted into a silt loam soil and treated preemergence with test chemicals formulated in a non-phytotoxic solvent mixture which included a surfactant. Treated plants and controls were maintained in a greenhouse for 21 days, after which time all species were compared to controls and visually evaluated. Plant response ratings, summarized in Table E, are based on a scale of 0 to 100 where 0 is no effect and 100 is complete control. A dash (-) response means no test result.

For `O=C1NCC(c2cccc(C(F)(F)F)c2)C1C(=O)Nc1ccccc1F` (racemic) [Compound 3], the “Plant response rating, Watergrass, Late” value with watergrass, late (250 g ai/ha) is 80; in the assay with watergrass, late (500 g ai/ha), 85.
With `CN1CC(c2ccc(F)cc2)C(C(=O)Nc2cccc(F)c2F)C1=O` (stereo not shown) [Compound 271], the “Plant response rating, Watergrass, Late” value in the assay on watergrass, late (64 g ai/ha) came to 45; in the assay with watergrass, late (125 g ai/ha) it was 75; in the assay on watergrass, late (250 g ai/ha), 100; in the assay on watergrass, late (500 g ai/ha) it was 100.
Take `O=C1NCC(c2cccc(C(F)(F)F)c2)C1C(=O)Nc1ccc(F)cc1F` (racemic) [Compound 207]: the “Plant response rating, Galium” value in the assay with galium (31 g ai/ha) was 55; in the assay on galium (62 g ai/ha) it was 60; with galium (125 g ai/ha), 45. Further, the Plant response rating with galium (250 g ai/ha, Galium, scale 0 to 100) is 20; with canarygrass (250 g ai/ha, Canarygrass, scale 0 to 100), 75; in the assay on mustard, wild (250 g ai/ha, Mustard, Wild, scale 0 to 100), 30. Also, the “Plant response rating, Watergrass, Late” value in the assay with watergrass, late (125 g ai/ha) was 65; in the assay on watergrass, late (250 g ai/ha), 85; with watergrass, late (500 g ai/ha), 90. Further, the “Plant response rating, Radish, Wild” value in the assay with radish, wild (31 g ai/ha) stood at 15; in the assay with radish, wild (62 g ai/ha), 10; in the assay on radish, wild (125 g ai/ha) it was 15; with radish, wild (250 g ai/ha) it was 15. In addition, the “Plant response rating, Canarygrass” value in the assay on canarygrass (31 g ai/ha) is 0; in the assay on canarygrass (62 g ai/ha), 5; with canarygrass (125 g ai/ha) it was 0. For the same compound, the “Plant response rating, Mustard, Wild” value in the assay on mustard, wild (31 g ai/ha) is given as 10; in the assay on mustard, wild (62 g ai/ha), 25; in the assay with mustard, wild (125 g ai/ha) it was 25.
Regarding `O=C1NCC(c2ccc(F)cc2)C1C(=O)Nc1ccccc1F` (racemic) [Compound 16], the “Plant response rating, Ryegrass, Italian” value in the assay with ryegrass, Italian (16 g ai/ha) is 0; in the assay on ryegrass, Italian (31 g ai/ha), 0; in the assay on ryegrass, Italian (62 g ai/ha), 0; with ryegrass, Italian (125 g ai/ha) it was 0; in the assay on ryegrass, Italian (250 g ai/ha), 30. Also, the “Plant response rating, Goosegrass” value in the assay with goosegrass (16 g ai/ha), with goosegrass (31 g ai/ha), in the assay with goosegrass (62 g ai/ha), in the assay with goosegrass (125 g ai/ha) and in the assay on goosegrass (250 g ai/ha) was 0 in each case.
`O=C1NCC(c2ccc(C(F)(F)F)c(F)c2)C1C(=O)Nc1cccc(F)c1F` (racemic) [Compound 247]: the “Plant response rating, Watergrass, Late” value with watergrass, late (125 g ai/ha) is 65; in the assay on watergrass, late (250 g ai/ha) it was 65; in the assay with watergrass, late (500 g ai/ha) it was 70; in the assay on watergrass, late (1000 g ai/ha), 85; with watergrass, late (2000 g ai/ha), 90.
